One test has as its target T1, human ORL-1 receptor (Homo sapiens, UniProt P41146).
T1 construct: host or cells: recombinant HEK-293 cells
Nature of the test: [35S]GTPγS functional assay with ORL-1 receptor membranes. Conditions: for Emax: [35S]GTPγS functional assay, NC = 100. The test is classed as biochemical. As for the experimental part:
Filter plates were subsequently dried at 50° C. for 2-3 hours. […] 3.0.

The target of test [1] is human opioid receptor-like (ORL-1) receptor (Homo sapiens, UniProt P41146). Format: binding.
human opioid receptor-like (ORL-1) receptor, sequence (P41146 whole entry): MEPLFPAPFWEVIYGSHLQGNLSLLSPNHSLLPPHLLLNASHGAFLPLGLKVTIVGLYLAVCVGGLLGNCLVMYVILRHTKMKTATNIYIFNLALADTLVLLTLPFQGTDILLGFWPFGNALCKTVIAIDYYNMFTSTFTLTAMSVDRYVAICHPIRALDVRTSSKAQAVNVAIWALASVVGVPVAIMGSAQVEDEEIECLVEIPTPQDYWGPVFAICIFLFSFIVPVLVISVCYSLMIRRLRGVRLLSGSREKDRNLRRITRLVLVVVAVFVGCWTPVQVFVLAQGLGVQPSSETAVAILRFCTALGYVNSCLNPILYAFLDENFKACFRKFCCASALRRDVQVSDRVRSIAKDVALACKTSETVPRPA

T1 sequence (P41146 whole entry): as above

In the case of `CC(C)C[C@H](NC(=O)[C@H](CCCCN)NC(=O)[C@H](CCCNC(=N)N)NC(=O)[C@H](C)NC(=O)[C@H](CO)NC(=O)[C@H](CCCCN)NC(=O)[C@H](CCCNC(=N)N)NC(=O)C(C)(C)NC(=O)CNC(=O)[C@@H](NC(=O)[C@H](Cc1ccccc1)NC(=O)CNC(=O)CNC(=O)[C@@H](N)Cc1ccccc1)[C@@H](C)O)C(=O)N[C@@H](C)C(=O)N[C@@H](CC(N)=O)C(=O)N[C@@H](CCC(N)=O)C(N)=O` [IA], at human ORL-1 receptor, the Emax is 82%. On the same count and under the same terms, the result for `CC(C)C[C@H](NC(=O)[C@H](CCCCN)NC(=O)[C@H](CCCNC(=N)N)NC(=O)C(C)(C)NC(=O)[C@H](CO)NC(=O)[C@H](CCCCN)NC(=O)[C@H](CCCNC(=N)N)NC(=O)[C@H](C)NC(=O)CNC(=O)[C@@H](NC(=O)[C@H](Cc1ccccc1)NC(=O)CNC(=O)CNC(=O)[C@@H](N)Cc1ccccc1)[C@@H](C)O)C(=O)N[C@@H](C)C(=O)N[C@@H](CC(N)=O)C(=O)N[C@@H](CCC(N)=O)C(N)=O` [IIA] reads 82%; that for `CC(C)C[C@H](NC(=O)[C@H](CCCCN)NC(=O)[C@H](CCCNC(=N)N)NC(=O)[C@H](C)NC(=O)[C@H](CO)NC(=O)[C@H](CCCCN)NC(=O)[C@H](CCCNC(=N)N)NC(=O)[C@H](C)NC(=O)CNC(=O)[C@@H](NC(=O)[C@H](Cc1ccccc1)NC(=O)CNC(=O)CNC(=O)[C@@H](N)Cc1ccccc1)[C@@H](C)O)C(=O)NC(C)(C)C(=O)N[C@@H](CC(N)=O)C(=O)N[C@@H](CCC(N)=O)C(N)=O` [IIIA], 97%. Still for that read-out and setting: the result for `CC(C)C[C@H](NC(=O)[C@H](CCCCN)NC(=O)[C@H](CCCNC(=N)N)NC(=O)[C@H](C)NC(=O)[C@H](CO)NC(=O)[C@H](CCCCN)NC(=O)[C@H](CCCNC(=N)N)NC(=O)[C@H](C)NC(=O)CNC(=O)[C@@H](NC(=O)[C@H](Cc1ccccc1)NC(=O)CNC(=O)CNC(=O)[C@@H](N)Cc1ccccc1)[C@@H](C)O)C(=O)NC(C)(C)C(=O)N[C@@H](CC(N)=O)C(=O)N[C@@H](CCC(N)=O)C(=O)O` [III] reads 91%; that for `CC(C)C[C@H](NC(=O)[C@H](CCCCN)NC(=O)[C@H](CCCNC(=N)N)NC(=O)C(C)(C)NC(=O)[C@H](CO)NC(=O)[C@H](CCCCN)NC(=O)[C@H](CCCNC(=N)N)NC(=O)[C@H](C)NC(=O)CNC(=O)[C@@H](NC(=O)[C@H](Cc1ccccc1)NC(=O)CNC(=O)CNC(=O)[C@@H](N)Cc1ccccc1)[C@@H](C)O)C(=O)N[C@@H](C)C(=O)N[C@@H](CC(N)=O)C(=O)N[C@@H](CCC(N)=O)C(=O)O` [II], 96%; that for `CC(C)C[C@H](NC(=O)[C@H](CCCCN)NC(=O)[C@H](CCCNC(=N)N)NC(=O)[C@H](C)NC(=O)[C@H](CO)NC(=O)[C@H](CCCCN)NC(=O)[C@H](CCCNC(=N)N)NC(=O)C(C)(C)NC(=O)CNC(=O)[C@@H](NC(=O)[C@H](Cc1ccccc1)NC(=O)CNC(=O)CNC(=O)[C@@H](N)Cc1ccccc1)[C@@H](C)O)C(=O)N[C@@H](C)C(=O)N[C@@H](CC(N)=O)C(=O)N[C@@H](CCC(N)=O)C(=O)O` [I], 97%. Take `CC(C)C[C@H](NC(=O)[C@H](CCCCN)NC(=O)[C@H](CCCNC(=N)N)NC(=O)C(C)(C)NC(=O)[C@H](CO)NC(=O)[C@H](CCCCN)NC(=O)[C@H](CCCNC(=N)N)NC(=O)C(C)(C)NC(=O)CNC(=O)[C@@H](NC(=O)[C@H](Cc1ccccc1)NC(=O)CNC(=O)CNC(=O)[C@@H](N)Cc1ccccc1)[C@@H](C)O)C(=O)N[C@@H](C)C(=O)N[C@@H](CC(N)=O)C(=O)N[C@@H](CCC(N)=O)C(N)=O` [VIIA, FGGFTG(AIB)RKS(AIB)RKLANQ-NH2]: the “affinity compared with NC” value in test [1] is reported as “significantly higher affinity”. The compound further returned an Emax at human ORL-1 receptor of 90%. The “agonist character at ORL-1” value at human ORL-1 receptor (functional assay, in words) is listed as “efficacious agonist”. In addition, the “potency compared with NC” value on human ORL-1 receptor (in words) is reported as “more potent”.

The values above are taken from patent publication US20040259775A1, “Conformationally constrained peptides that bind the ORL-1 receptor” (EURO-CELTIQUE S.A., priority 2002, published 2004).
